Laboratory results published in patent US11485751B2, “Apramycin derivatives” (WAYNE STATE UNIVERSITY, priority 2017, dated 2022).
Values after ≈ are worked out from the molar mass of the structure shown.

Columns and labels:
[1] = test system: human mitochondrial ribosomes; assay: in-vitro translation assay, human mitochondrial (human chimeric) ribosomes; assay type: biochemical
Description: (§1) IC50 values for bacterial, human chimeric, and rabbit reticulocyte ribosomes have been determined by in-vitro translation assays as described previously (Proc. Nat. Ac. Sci USA 2012, 109(27):10984-10989).
(§2) Minimal inhibitory concentrations (MICs, […]) against clinical isolates from Institute of Medical Microbiology, Univ. Zurich, and the IC50 values for bacterial, human mitochondrial and human cytosolic ribosomes are indicated.

[2] = test system: AG290, Enterobacter cloacae; assay: MIC reference strain AG290; assay type: cell-based; conditions: Enterobacter cloacae, read-out: MIC AG290 E. cloacae
Description: (§3) Minimal inhibitory concentrations (MIC) have been determined by broth microdilution assays (CLSI. Methods for Dilution Antimicrobial Susceptibility Tests for Bacteria That Grow Aerobically; Approved Standard—Tenth Edition. CLSI document M07-A10. Wayne, Pa.: Clinical and Laboratory Standards Institute; 2015.).
(§4) Table 4 and 5 show the antibacterial activity of the compounds of the invention against bacterial reference strains (table 4) and against representative clinical isolates (table 5).
(§5) Legend to Tables: GEN, gentamicin; AMK, amikacin; PLZ, plazomicin; APR, apramycin; AG212, Escherichia coli ATCC25922; AG215, Klebsiella pneumonia; AG220, Pseudomonas aeruginosa ATCC27853; AG225, Acinetobacter baumannii pittii; AG290, Enterobacter cloacae; […], Mycobacterium smegmatis. MICs for AG192 have been determined in the presence of 0.5 μg/mL of ampicillin in the medium to mimic the synergistic effect of aminoglycoside and β-lactam antibiotics combination therapy in the treatment of Enterococcus infections in humans.

[3] = test system: clinical isolates carrying AAC(3)-IV; assay: MIC broth microdilution, AAC(3)-IV; assay type: cell-based; conditions: read-out: MIC AAC(3)-IV
Description: as §3, §2
(§6) Minimal inhibitory concentrations (μg/ml) against clinical isolates from Institute of Medical Microbiology, Univ. Zurich, and the IC50 values for bacterial, human mitochondrial and human cytosolic ribosomes are indicated.
(§7) The Minimal inhibitory concentrations (MICs, μg/ml) against clinical isolates from Institute of Medical Microbiology, Univ Zurich, and the IC50 values for bacterial, human mitochondrial and human cytosolic ribosomes are indicated.

[4] = test system: E. coli AG153 AAC(3)-II APH(3′)-II rmtB; assay: Activity against G1405-methylated 16S-rRNA, clinical isolate AG153; assay type: cell-based
Description: as §3

[5] = test system: Enterob. AG302 AAC(3)-II AAC(6′)-I rmtC; assay: Activity against G1405-methylated 16S-rRNA, clinical isolate AG302; assay type: cell-based
Description: as §3

[6] = test system: AG225, Acinetobacter baumannii pittii; assay: MIC reference strain AG225; assay type: cell-based; conditions: Acinetobacter baumannii, read-out: MIC AG225 A. baumannii
Description: as §3, §4, §5

AG031 P. aer. APH(3′)-II = assay: Antibacterial activity, clinical isolate AG031; assay type: cell-based; set-up: unit not given here
Description: as §3, §4

[7] = test system: AG212, Escherichia coli ATCC25922; assay: MIC reference strain AG212; assay type: cell-based; conditions: Escherichia coli, ATCC25922, read-out: MIC AG212 E. coli
Description: as §3, §4, §5

[8] = test system: AG220, Pseudomonas aeruginosa ATCC27853; assay: MIC reference strain AG220; assay type: cell-based; conditions: Pseudomonas aeruginosa, ATCC27853, read-out: MIC AG220 P. aeruginosa
Description: as §3, §4, §5

isolates carrying apmA = assay: MIC broth microdilution, apmA; assay type: cell-based; conditions: apmA resistance gene
Description: as §3, with “2015.). […]” for “2015.).”
as §6, §7

[9] = test system: A baum. AG227 APH(3′)-I armA; assay: Activity against G1405-methylated 16S-rRNA, clinical isolate AG227; assay type: cell-based
Description: as §3

[10] = test system: Engineered E. coli pH430 WT; assay: Activity, engineered E. coli pH430 WT; assay type: cell-based; conditions: wild type
Description: as §3

ATCC19977 M. abcessus = assay: MIC reference strain ATCC19977; assay type: cell-based; conditions: read-out: MIC ATCC19977 M. abcessus
Description: as §3, §4

[11] = test system: human cytosolic ribosomes; assay: in-vitro translation assay, human cytosolic ribosomes; assay type: biochemical
Description: as §1, §2

[12] = test system: Engineered E. coli pH424 armA; assay: Activity against G1405-methylated 16S-rRNA, E. coli pH424 armA; assay type: cell-based
Description: as §3

bacterial ribosomes = assay: in-vitro translation assay, bacterial ribosomes; assay type: biochemical
Description: as §1, §2

AG173 E. coli AAC(3)-IV = assay: Antibacterial activity, clinical isolate AG173; assay type: cell-based
Description: as §3, §4

[13] = test system: AG215, Klebsiella pneumonia; assay: MIC reference strain AG215; assay type: cell-based; conditions: Klebsiella pneumoniae, read-out: MIC AG215 K. pneumonia
Description: as §3, §4, §5

AG001 E. coli WT = assay: Antibacterial activity, clinical isolate AG001; assay type: cell-based
Description: as §3, §4

[14] = test system: SZ380, Mycobacterium smegmatis; assay: MIC reference strain SZ380; assay type: cell-based; conditions: Mycolicibacterium smegmatis, read-out: MIC SZ380 M. smegmatis
Description: as §3, §4, §5

AG038 MRSA = assay: Antibacterial activity, clinical isolate AG038; assay type: cell-based
Description: as §3, §4

[15] = test system: K. pneum. AG269 AAC(3)-II AAC(6′)-I rmtB; assay: Activity against G1405-methylated 16S-rRNA, clinical isolate AG269; assay type: cell-based
Description: as §3

WT clinical isolates = assay: MIC broth microdilution, WT; assay type: cell-based; conditions: read-out: MIC WT, clinical isolates, IMM Univ. Zurich; wild type
Description: as §3, §2, §6, §7

| Compound | IC50 [1] [µM] | MIC [2] [µg/mL] | MIC [3] [µg/mL] | Activity E. coli AG153 AAC(3)-II APH(3′)-II rmtB [4] | Activity Enterob. AG302 AAC(3)-II AAC(6′)-I rmtC [5] | MIC [6] [µg/mL] | Antibacterial activity AG031 P. aer. APH(3′)-II (AG031 P. aer. APH(3′)-II) | MIC [7] [µg/mL] | MIC [8] [µg/mL] | MIC (isolates carrying apmA) [µg/mL] | Activity A baum. AG227 APH(3′)-I armA [9] | Activity E. coli pH430 WT [10] | MIC (ATCC19977 M. abcessus) [µg/mL] | IC50 [11] [µM] | Activity E. coli pH424 armA [12] | IC50 (bacterial ribosomes) [µM] | Antibacterial activity AG173 E. coli AAC(3)-IV (AG173 E. coli AAC(3)-IV) | MIC [13] [µg/mL] | Antibacterial activity AG001 E. coli WT (AG001 E. coli WT) | MIC [14] [µg/mL] | also measured |
| --- | --- | --- | --- | --- | --- | --- | --- | --- | --- | --- | --- | --- | --- | --- | --- | --- | --- | --- | --- | --- | --- |
| CNC1C(O)C2O[C@H](O[C@@H]3C(N)C[C@@H](N)[C@@H](O)[C@H]3OCC(O)CO)C(N)C[C@@H]2O[C@@H]1O[C@H]1OC(CO)[C@@H](N)[C@H](O)C1O (stereo partly drawn) [DC208] | 434 | 4 | 64 (≈ 104 µM) | 8 | 4 | 16 | 32 | 8 | 16 to 32 | > 128 | 8 | 4-8 | 2 (≈ 3.26 µM) | > 1000 | 2 | 0.21 | >64 | 4 | 8 | 0.5 | Antibacterial activity AG038 MRSA (AG038 MRSA): 8-16; Activity K. pneum. AG269 AAC(3)-II AAC(6′)-I rmtB [15]: 4; MIC (WT clinical isolates): 4 to 8 µg/mL (≈ 6.52 to 13 µM) |
| CNC1C(O)C2O[C@H](O[C@@H]3C(N)C[C@@H](N)[C@@H](O)[C@H]3OCCCO)C(N)C[C@@H]2O[C@@H]1O[C@H]1OC(CO)[C@@H](N)[C@H](O)C1O (stereo partly drawn) [DC207] | > 1000 | 16 | > 128 | 8 | 8-16 | 32 | 128 | 16 | 64 | > 128 | 16-32 | 8 | 8 (≈ 13.4 µM) | > 1000 | 4 | 0.6 | >128 | 8 | 16 | 1 | Antibacterial activity AG038 MRSA (AG038 MRSA): 32; Activity K. pneum. AG269 AAC(3)-II AAC(6′)-I rmtB [15]: 8 |
